According to patent US10780092B2, “Fused pyrazine derivatives useful as soluble guanylate cyclase stimulators” (Merck Sharp & Dohme Corp., priority 2016, dated 2020):

Legend:
sGC α1/β1 heterodimer = sGC α1/β1 heterodimer (Homo sapiens (Human), UniProt Q02108+Q02153); experiment: Cell-based sGC functional assay (CASA assay), cGMP by HTRF; settings: CHO-K1/sGC cells; for Emax: CHO-K1, cGMP production as percentage of maximum of compound A (set to 100%), read-out: % Activation; for EC50: inflection point of cGMP production, 4P fit, read-out: IP
How it was run: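 CHO-K1 cells stably expressing human sGC α1/β1, with 0.5 mM IBMX, pre-incubated ±1 μM DETA-NO 30 min at 25° C, then compound 1 hr at 37° C (2.5% DMSO). cGMP by HTRF; activation as % of reference activator maximum, 4P fit giving inflection point and maximum […].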

[1] = target: human recombinant sGC enzyme (Homo sapiens (Human), UniProt Q02108+Q02153); experiment: SEC competition binding assay with [3H] Compound B radioligand; settings: displacement of 1.6 nM [3H] Compound B, 24 h at 37° C.
How it was run: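 Recombinant human sGC incubated with 1.6 nM [3H] Compound B and test compounds for 24 h at 37° C. Buffer: 50 mM triethanolamine pH 7.4, 3 mM MgCl2, 0.025% BSA, 2 mM DTT, 300 μM DETA/NO, 400 μM GTP, 1% DMSO. Bound ligand separated by gel filtration and counted by scintillation; non-specific binding with 1 μM Compound B; Ki from one-site fit.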

| Emax (sGC α1/β1 heterodimer) | EC50 (sGC α1/β1 heterodimer) | Ki [1] | SMILES |
| --- | --- | --- | --- |
| 206% | 391 nM | 1.1 nM | CC1(c2ccc(O)c(F)c2)C(=O)Nc2nc(-c3cn4ccnc4c(Cc4cccc(Cl)c4)n3)nc(N)c21 (stereo not drawn) [Example 126-B, 4-Amino-2-{8-[(3-chlorophenyl)methyl]-imidazo[1,2-a]pyrazin-6-yl}-5-(3-fluoro-4-hydroxy-phenyl)-5-methyl-5,7-dihydro-6H-pyrrolo-[2,3-d]pyrimidin-6-one] |
| 117% | 893 nM | 0.691 nM | CC1(c2ccc(C(F)(F)F)c(O)c2)C(=O)Nc2nc(-c3cn4ccnc4c(Cc4cc(F)cc(F)c4)n3)nc(N)c21 (stereo not drawn) [Example 46-B, 4-Amino-2-{8-[(3,5-difluorophenyl)methyl]imidazo[1,2-a]pyrazin-6-yl}-5-(3-hydroxy-4-(trifluoromethyl)phenyl)-5-methyl-5,7-dihydro-6H-pyrrolo[2,3-d]pyrimidin-6-one] |
| 67% | 798 nM | 1.24 nM | CC(C)CCc1nc(-c2nc(N)c3c(n2)NC(=O)C3(C)c2cc(O)c(Cl)cn2)cn2ccnc12 (stereo not drawn) [Example 57-B, 4-Amino-5-(5-chloro-4-hydroxypyridin-2-yl)-2-(8-isopentylimidazo[1,2-a]pyrazin-6-yl)-5-methyl-5,7-dihydro-6H-pyrrolo[2,3-d]pyrimidin-6-one] |
| 108% | 1380 nM | 3.47 nM | CC1(c2ccc(Cl)c(O)c2Cl)C(=O)Nc2nc(-c3cn4ccnc4c(CC4CCCCC4)n3)nc(N)c21 (stereo not drawn) [Example 69-A, 4-Amino-2-(8-(cyclohexylmethyl)imidazo[1,2-a]pyrazin-6-yl)-5-(2,4-dichloro-3-hydroxyphenyl)-5-methyl-5,7-dihydro-6H-pyrrolo[2,3-d]pyrimidin-6-one] |
| 103% | 70 nM | 0.676 nM | CC(C)CCc1nc(-c2nc(N)c3c(n2)NC(=O)C3(C)c2ccc(F)c(O)c2)cn2ccnc12 (stereo not drawn) [Example 47-B, 4-Amino-5-(4-fluoro-3-hydroxyphenyl)-2-(8-isopentylimidazo[1,2-a]pyrazin-6-yl)-5-methyl-5,7-dihydro-6H-pyrrolo[2,3-d]pyrimidin-6-one] |
| 102% | 333 nM | 0.592 nM | CN1CCN(c2nc(-c3cn4ccnc4c(Cc4ccc(F)cc4)n3)nc3c2C(C)(c2ccc(Cl)c(O)c2)C(=O)N3)CC1 (stereo not drawn) [Example 134-A, 5-(4-Chloro-3-hydroxy-phenyl)-2-{8-[(4-fluoro-phenyl)methyl]imidazo-[1,2-a]pyrazin-6-yl}-5-methyl-4-(4-methyl-piperazin-1-yl)-5,7-dihydro-6H-pyrrolo-[2,3-d]pyrimidin-6-one] |
| 111% | 243 nM | 0.317 nM | CC1(c2cccc(O)c2)C(=O)Nc2nc(-c3cn4ccnc4c(Cc4ccc(F)cc4F)n3)nc(N)c21 (stereo not drawn) [Example 34-B, 4-Amino-2-{8-[(2,4-difluorophenyl)methyl]imidazo[1,2-a]pyrazin-6-yl}-5-(3-hydroxyphenyl)-5-methyl-5,7-dihydro-6H-pyrrolo[2,3-d]pyrimidin-6-one] |
| 91% | 125 nM | 2.9 nM | CC1(c2cc(Cl)c(O)c(Cl)c2)C(=O)Nc2nc(-c3cn4ccnc4c(CC4CCCCC4)n3)nc(N)c21 (stereo not drawn) [Example 113-A, 4-Amino-2-(8-(cyclo-hexylmethyl)imidazo-[1,2-a]pyrazin-6-yl)-5-(3,5-dichloro-4-hydroxy-phenyl)-5-methyl-5,7-dihydro-6H-pyrrolo-[2,3-d]-pyrimidin-6-one] |
| 106% | 1820 nM | 15.6 nM | Cc1cccc(Cc2nc(-c3nc(N)c4c(n3)NC(=O)C4(C)c3cccc(O)c3)cn3ccnc23)c1 (stereo not drawn) [Example 122-B, 4-Amino-5-(3-hydroxy-phenyl)-5-methyl-2-{8-[(3-methylphenyl)methyl]-imidazo[1,2-a]pyrazin-6-yl}-5,7-dihydro-6H-pyrrolo-[2,3-d]pyrimidin-6-one] |
